The record followed here is PubChem BioAssay (NCI).

Structures are written as SMILES.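 Five concentrations, 48 hours, 96-well plates. The concentration for 50% growth inhibition is given as GI50. TGI is the concentration that stops growth completely.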

One test relates to OVCAR-4 ovarian. Put plainly: NCI tumour cell line growth inhibition, 48 h.
As to `Cc1nc(N)nc(N)c1-c1ccc(Cl)c(Cl)c1`, the TGI was greater than 100 µM.
As to `Cc1cccc2nc3c(C(=O)NCCN(C)C)cccc3cc12`, the TGI worked out at 7.46 µM.
Regarding `C[C@]12CC[C@@H]3c4ccc(OP(=O)(O)O)cc4CC[C@H]3[C@@H]1CCC2=O`, the TGI was greater than 100 µM.
Compound `CCSCCC(N)C(=O)O` (stereo not given) returned a TGI greater than 100 µM.
Take `COc1ccc2nc(N/N=C/C(C)=N/Nc3cc(C)c4cc(OC)ccc4n3)cc(C)c2c1`: the TGI turned out to be 35.6 µM.
Turning to `CN(C)CC(=O)Nc1ccc(Cn2nnc3c2C(=O)c2nnn(Cc4ccc(NC(=O)CN(C)C)cc4)c2C3=O)cc1`, the GI50 was 0.0473 µM and the TGI is 0.179 µM.

Another test relates to DMS 114 small cell lung. Briefly: NCI tumour cell line growth inhibition, 48 h.
As for `ONc1ncnc2nc[nH]c12`, the TGI is greater than 100 µM.
The same measure, in the same setting: as for `CCCc1[nH]c(SCCCCCCCCSc2nc(-c3ccc(F)cc3)c(CCC)[nH]2)nc1-c1ccc(F)cc1`, the figure is greater than 100 µM; as for `CCS(=O)(=O)Nc1ccc(Nc2c3ccccc3nc3ccccc23)c(OC)c1`, 5.53 µM; as for `Cc1nc(N)nc(N)c1-c1ccc(Cl)c(Cl)c1`, greater than 100 µM.
Still for that read-out and setting: as for `Cc1cccc2nc3c(C(=O)NCCN(C)C)cccc3cc12`, the figure is 3.37 µM.

For a further test, the system named is UACC-257 melanoma. Put plainly: NCI tumour cell line growth inhibition, 48 h.
For `CCN(CC)CC(C)Nc1ccc([N+](=O)[O-])c2sc3ccccc3c(=O)c12` (stereo not given), the GI50 is 1.68 µM and the TGI amounted to 4.15 µM.
With `N=C(N)c1ccc(-c2ccc(-c3cc(Cl)cc(Cl)c3)o2)nc1`, the GI50 is 1.84 µM and the TGI is 3.59 µM.
In turn, `CCOC(=O)CSc1nc(N)c2c(-c3ccc(OC)c(OC)c3)c3c(nc2n1)CCCC3` returned a TGI greater than 100 µM.
`O=C(CCCCCCC(=O)Nc1ccc(N(CCCl)CCCl)cc1)NO`: the GI50 is 2.27 µM and the TGI was 14.1 µM.
As for `CN1CC[C@@]2(c3cccc(O)c3)CC(=O)/C(=C/c3ccccc3)[C@H]1C2`, the TGI came to 30.8 µM.
In turn, `ONc1ncnc2nc[nH]c12` displayed a TGI greater than 100 µM.
With `CCCc1[nH]c(SCCCCCCCCSc2nc(-c3ccc(F)cc3)c(CCC)[nH]2)nc1-c1ccc(F)cc1`, the TGI is greater than 100 µM.
Same read-out and setting: as for `O=S(=O)(O)c1ccc2cccc(N=Nc3c(O)ccc4ccccc34)c2c1`, the figure is greater than 100 µM.
For `COc1ccc2nc(-c3ccc(-c4noc(-c5cc(OC)c(OC)c(OC)c5)n4)cc3)[nH]c2c1`, the GI50 was 17.1 µM and the TGI is 46.9 µM.
For `COc1ccc(/C(=C2/O[C@@H]([C@H]3COC(C)(C)O3)[C@H]3OC(C)(C)O[C@@H]23)c2cc(OC)c(OC)c(OC)c2)cc1O` the same measures were 39.4 µM and greater than 100 µM.
As for `Cn1c(=O)c2c(nc(-n3nc(-c4ccc(Cl)cc4)cc3N)n2C)n(C)c1=O`, the TGI is greater than 100 µM.
Compound `N=c1c2c(C(N)=O)cn(C3OC(CO)C(O)C3O)c2ncn1O` (stereo not given) came in with a TGI of 0.901 µM.
`CCS(=O)(=O)Nc1ccc(Nc2c3ccccc3nc3ccccc23)c(OC)c1` registered a TGI of 16.9 µM.
In turn, `Cc1nc(N)nc(N)c1-c1ccc(Cl)c(Cl)c1` showed a TGI greater than 100 µM.
Still for that read-out and setting: as for `Cc1cccc2nc3c(C(=O)NCCN(C)C)cccc3cc12`, the figure is 3.44 µM.
Still for that read-out and setting: as for `C[C@]12CC[C@@H]3c4ccc(OP(=O)(O)O)cc4CC[C@H]3[C@@H]1CCC2=O`, the figure is greater than 100 µM; as for `CCSCCC(N)C(=O)O` (stereo not given), greater than 100 µM.
The compound `COc1ccc2nc(N/N=C/C(C)=N/Nc3cc(C)c4cc(OC)ccc4n3)cc(C)c2c1` came in with a TGI greater than 86.6 µM.
As for `CN(C)CC(=O)Nc1ccc(Cn2nnc3c2C(=O)c2nnn(Cc4ccc(NC(=O)CN(C)C)cc4)c2C3=O)cc1`, the GI50 is 0.172 µM and the TGI was determined as 0.339 µM.

For the next test, the system named is BT-549 breast. Briefly: NCI tumour cell line growth inhibition, 48 h.
In the case of `CCN(CC)CC(C)Nc1ccc([N+](=O)[O-])c2sc3ccccc3c(=O)c12` (stereo not given), the GI50 is 5.03 µM and the TGI was 21.4 µM.
For the compound `CCOC(=O)CSc1nc(N)c2c(-c3ccc(OC)c(OC)c3)c3c(nc2n1)CCCC3`, the TGI was greater than 100 µM.
Regarding `O=C(CCCCCCC(=O)Nc1ccc(N(CCCl)CCCl)cc1)NO`, the GI50 was 5.83 µM and the TGI worked out at 29.2 µM.
In turn, `CN1CC[C@@]2(c3cccc(O)c3)CC(=O)/C(=C/c3ccccc3)[C@H]1C2` registered a TGI of 26.7 µM.
Still for that read-out and setting: the figure for `O=C(N/N=C(/c1ccccc1)C(F)(F)F)c1ccncc1` is greater than 100 µM; for `O=S(=O)(O)c1ccc2cccc(N=Nc3c(O)ccc4ccccc34)c2c1` it is greater than 100 µM.
The compound `Cn1c(=O)c2c(nc(-n3nc(-c4ccc(Cl)cc4)cc3N)n2C)n(C)c1=O` returned a TGI greater than 100 µM.
The same measure, in the same setting: as for `N=c1c2c(C(N)=O)cn(C3OC(CO)C(O)C3O)c2ncn1O` (stereo not given), the figure is 4.61 µM; as for `Cc1nc(N)nc(N)c1-c1ccc(Cl)c(Cl)c1`, greater than 100 µM; as for `C[C@]12CC[C@@H]3c4ccc(OP(=O)(O)O)cc4CC[C@H]3[C@@H]1CCC2=O`, greater than 100 µM.
On the same count and under the same terms, the figure for `CCSCCC(N)C(=O)O` (stereo not given) is greater than 100 µM; for `COc1ccc2nc(N/N=C/C(C)=N/Nc3cc(C)c4cc(OC)ccc4n3)cc(C)c2c1` it is greater than 100 µM.

A further test has as its system XF 498 CNS. Put plainly: NCI tumour cell line growth inhibition, 48 h.
The compound `ONc1ncnc2nc[nH]c12` registered a TGI greater than 100 µM.
Same read-out and setting: the figure for `CCS(=O)(=O)Nc1ccc(Nc2c3ccccc3nc3ccccc23)c(OC)c1` is 2.01 µM; for `Cc1nc(N)nc(N)c1-c1ccc(Cl)c(Cl)c1` it is greater than 100 µM.
Compound `Cc1cccc2nc3c(C(=O)NCCN(C)C)cccc3cc12` registered a TGI of 3.24 µM.

The test system of a further test is SR leukemia. Put plainly: NCI tumour cell line growth inhibition, 48 h.
In the case of `N=C(N)c1ccc(-c2ccc(-c3cc(Cl)cc(Cl)c3)o2)nc1`, the GI50 is 1.78 µM and the TGI worked out at 4.8 µM.
For the compound `CCOC(=O)CSc1nc(N)c2c(-c3ccc(OC)c(OC)c3)c3c(nc2n1)CCCC3`, the TGI was greater than 100 µM.
Still for that read-out and setting: as for `CNC(=O)OC(C)CN1c2ccccc2Sc2ccc(Cl)cc21` (stereo not given), the figure is greater than 10 µM.
For the compound `O=C(CCCCCCC(=O)Nc1ccc(N(CCCl)CCCl)cc1)NO`, the GI50 is 0.23 µM and the TGI is 3.09 µM.
Turning to `CN1CC[C@@]2(c3cccc(O)c3)CC(=O)/C(=C/c3ccccc3)[C@H]1C2`, the TGI is 7.5 µM.
Compound `O=C(N/N=C(/c1ccccc1)C(F)(F)F)c1ccncc1` displayed a TGI greater than 100 µM.
On the same count and under the same terms, the figure for `ONc1ncnc2nc[nH]c12` is greater than 100 µM.
The compound `CCCc1[nH]c(SCCCCCCCCSc2nc(-c3ccc(F)cc3)c(CCC)[nH]2)nc1-c1ccc(F)cc1` came in with a TGI greater than 100 µM.
The same measure, in the same setting: the figure for `O=S(=O)(O)c1ccc2cccc(N=Nc3c(O)ccc4ccccc34)c2c1` is greater than 100 µM.
As for `COc1ccc(/C(=C2/O[C@@H]([C@H]3COC(C)(C)O3)[C@H]3OC(C)(C)O[C@@H]23)c2cc(OC)c(OC)c(OC)c2)cc1O`, the GI50 is 6.1 µM and the TGI is greater than 100 µM.
With `Cn1c(=O)c2c(nc(-n3nc(-c4ccc(Cl)cc4)cc3N)n2C)n(C)c1=O`, the TGI was greater than 100 µM.
The compound `N=c1c2c(C(N)=O)cn(C3OC(CO)C(O)C3O)c2ncn1O` (stereo not given) returned a TGI of 0.234 µM.
In the case of `Cc1nc(N)nc(N)c1-c1ccc(Cl)c(Cl)c1`, the TGI is greater than 100 µM.
Turning to `CCSCCC(N)C(=O)O` (stereo not given), the TGI is greater than 100 µM.
On the same count and under the same terms, as for `COc1ccc2nc(N/N=C/C(C)=N/Nc3cc(C)c4cc(OC)ccc4n3)cc(C)c2c1`, the figure is 12.8 µM.

The next test deals with MDA-N. Put plainly: NCI tumour cell line growth inhibition, 48 h.
`CCOC(=O)CSc1nc(N)c2c(-c3ccc(OC)c(OC)c3)c3c(nc2n1)CCCC3` registered a TGI greater than 100 µM.
Same read-out and setting: the figure for `CNC(=O)OC(C)CN1c2ccccc2Sc2ccc(Cl)cc21` (stereo not given) is greater than 10 µM; for `CN1CC[C@@]2(c3cccc(O)c3)CC(=O)/C(=C/c3ccccc3)[C@H]1C2` it is 16.4 µM.
`O=C(N/N=C(/c1ccccc1)C(F)(F)F)c1ccncc1`: the TGI was greater than 100 µM.
On the same count and under the same terms, as for `O=S(=O)(O)c1ccc2cccc(N=Nc3c(O)ccc4ccccc34)c2c1`, the figure is greater than 100 µM; as for `Cn1c(=O)c2c(nc(-n3nc(-c4ccc(Cl)cc4)cc3N)n2C)n(C)c1=O`, greater than 100 µM.
Compound `Cc1nc(N)nc(N)c1-c1ccc(Cl)c(Cl)c1` came in with a TGI greater than 100 µM.
Turning to `C[C@]12CC[C@@H]3c4ccc(OP(=O)(O)O)cc4CC[C@H]3[C@@H]1CCC2=O`, the TGI was greater than 100 µM.
Still for that read-out and setting: as for `CCSCCC(N)C(=O)O` (stereo not given), the figure is greater than 100 µM; as for `COc1ccc2nc(N/N=C/C(C)=N/Nc3cc(C)c4cc(OC)ccc4n3)cc(C)c2c1`, 55.5 µM.

In the next test the test system is 786-0 renal. Put plainly: NCI tumour cell line growth inhibition, 48 h.
With `CN1CC[C@@]2(c3cccc(O)c3)CC(=O)/C(=C/c3ccccc3)[C@H]1C2`, the TGI was found to be 25 µM.
`ONc1ncnc2nc[nH]c12` returned a TGI greater than 100 µM.
As for `O=S(=O)(O)c1ccc2cccc(N=Nc3c(O)ccc4ccccc34)c2c1`, the TGI was greater than 100 µM.
On the same count and under the same terms, as for `Cn1c(=O)c2c(nc(-n3nc(-c4ccc(Cl)cc4)cc3N)n2C)n(C)c1=O`, the figure is greater than 100 µM; as for `N=c1c2c(C(N)=O)cn(C3OC(CO)C(O)C3O)c2ncn1O` (stereo not given), 1.08 µM; as for `Cc1nc(N)nc(N)c1-c1ccc(Cl)c(Cl)c1`, greater than 100 µM.
Compound `C[C@]12CC[C@@H]3c4ccc(OP(=O)(O)O)cc4CC[C@H]3[C@@H]1CCC2=O` had a TGI greater than 100 µM.
Same read-out and setting: the figure for `CCSCCC(N)C(=O)O` (stereo not given) is greater than 100 µM.
The same measure, in the same setting: the figure for `COc1ccc2nc(N/N=C/C(C)=N/Nc3cc(C)c4cc(OC)ccc4n3)cc(C)c2c1` is 28 µM.

Another test concerns LXFL 529 NSCLC. Put plainly: NCI tumour cell line growth inhibition, 48 h.
Compound `ONc1ncnc2nc[nH]c12` gave a TGI greater than 100 µM.
Still for that read-out and setting: the figure for `CCCc1[nH]c(SCCCCCCCCSc2nc(-c3ccc(F)cc3)c(CCC)[nH]2)nc1-c1ccc(F)cc1` is greater than 100 µM.
In turn, `Cc1nc(N)nc(N)c1-c1ccc(Cl)c(Cl)c1` came in with a TGI greater than 100 µM.
